Results published in patent US10918648B2, “Estrogen receptor modulator combinations” (The Regents of the University of California, priority 2016, dated 2021).

Legend:
estrogen receptor-alpha = target: T1, estrogen receptor-alpha (Homo sapiens, UniProt P03372); assay: ER down-regulation, Western immunoblot of ERα protein in MCF-7 cells; type: cell-based; conditions: for estrogen receptor-alpha expression (ERα protein levels, Western immunoblot): 1 μM or 10 μM, 48 hrs, in the presence of 1 nM estradiol, FIG. 3A
T1 construct: MCF-7 breast cancer cells with high expression of ERα protein were treated with; endogenous in cells; host or cells: MCF-7 human breast cancer cells
T1 sequence (P03372 1-595): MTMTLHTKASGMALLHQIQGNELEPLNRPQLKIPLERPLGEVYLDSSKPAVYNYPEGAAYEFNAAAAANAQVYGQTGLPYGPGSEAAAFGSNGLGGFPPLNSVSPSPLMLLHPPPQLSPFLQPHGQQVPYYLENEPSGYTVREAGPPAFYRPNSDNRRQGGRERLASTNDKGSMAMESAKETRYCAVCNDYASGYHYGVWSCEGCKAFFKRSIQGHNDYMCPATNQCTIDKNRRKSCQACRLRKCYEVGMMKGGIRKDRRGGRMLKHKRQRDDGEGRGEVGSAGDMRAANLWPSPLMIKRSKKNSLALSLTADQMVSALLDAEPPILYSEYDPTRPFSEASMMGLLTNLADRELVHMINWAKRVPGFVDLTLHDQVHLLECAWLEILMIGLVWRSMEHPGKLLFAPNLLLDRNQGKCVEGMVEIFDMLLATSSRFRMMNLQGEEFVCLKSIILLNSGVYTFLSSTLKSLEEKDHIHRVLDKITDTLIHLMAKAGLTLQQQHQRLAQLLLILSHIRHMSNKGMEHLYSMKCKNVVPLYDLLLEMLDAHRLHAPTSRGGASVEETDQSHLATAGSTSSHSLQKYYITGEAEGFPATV
Description: MCF-7 breast cancer cells were maintained in estrogen-free conditions 48 h before experiments as described above. Cells were then incubated with vehicle control or either 1 μM or 10 μM antiestrogens in the presence of 1 nM estradiol-1713 for 48 hrs. After lysis, total cell proteins were resolved by 4-15% SDS-PAGE, transferred to polyvinylidene difluoride membranes and probed with mouse monoclonal antibody directed against estrogen receptor-alpha (Assay Designs, #SRA1010). Membranes were stripped and re-probed with Ribosomal Protein L13A (Santa Cruz Biotechnology, C11) as a loading control (45).
Fulvestrant (Faslodex®) has been characterized as a selective ERα downregulator and a pure anti-estrogen. Fulvestrant inhibits the transcriptional response to estrogen stimulation and induces the degradation of estrogen receptor proteins (46,47). […] One problem with fulvestrant is that the drug requires intramuscular injection and may not achieve optimal antitumor effects due to the limited doses that can be administered by this drug delivery method. […] MCF-7 breast cancer cells with high expression of ERα protein were treated with estradiol-170 and either 1 μM or 10 μM concentrations of JD128 and JD140 for 48 hours. […] MCF-7 breast cancer cells were estrogen-deprived for 48 hrs, then treated with 1 nM estradiol-170 (E2) or antiestrogens JD128 (128) or JD140 (140) at 1 μM or 10 μM concentrations in the presence of 1 nM estradiol-170. After 48 hrs, PAGE and immunoblotting was performed with antibody directed to anti-ERα (SRA1010) and anti-RPL13A for a loading control.
ER down-regulation: To determine if selected compounds can down-regulate ER protein, we treated cells for 24-48 hrs in vitro with candidate compounds at varying doses. Then, cells were disrupted and prepared for PAGE and Western immunoblots using anti-ERα antibodies (see FIG. 6A). […] Those ERDs with optimal activity in down-regulating ER were investigated further in the chemistry laboratory to further refine and develop such agents. […]

cleaved PARP = assay: PARP cleavage, Western blot in A549 cells; type: cell-based, human; conditions: A549 cells, 0.01, 0.1 and 1 μM, 4 hours, 5% DCC-FBS; FIG. 2B
Description: FIG. 2B. […] A549 cells were treated in 5% DCC-FBS phenol-red free RPMI1640 with vehicle control (C) or increasing concentrations of JD140 at 0.01, 0.1 and 1 μM or 0.1 μM fulvestrant (F) for 4 hours. Western Blots were performed using anti-cleaved-PARP antibody (Cell Signaling Technology). RPL13A is shown as loading control. The Western blot is representative of 3 independent experiments.
We next assessed the effect of SERD compound 140 on the stimulation of NSCLC cell apoptosis by measurement of PARP cleavage at increasing drug doses (see FIG. 2B).
(§1) Gel electrophoresis and immunoblotting: Breast and lung tumor cells were treated in phenol-red free RPMI1640/DMEM with 5% DCC-FBS (26). After selected treatments cells were homogenized in the presence of protease inhibitors using RIPA buffer (Thermo Scientific). All procedures were performed in ice, lysates were centrifuged and protein concentration quantified in the supernatants using a Thermo Scientific® BCA protein assay kit. Approximately 20-60 μg of total protein were heated in the presence of Laemmli sample buffer (Biorad) to 100° C. for 10 min and loaded it on a gradient TGX gel 4-15% (Biorad). Gels were transferred to PVDF membranes for immunoblotting. Membranes were blocked either with 5% milk in Tris Buffer Saline with 0.1% Tween 20 or protein-free blocking solution (Thermo Scientific). […]

cyclin D1 = assay: Cyclin D1 expression, Western immunoblot in MCF-7 cells; type: cell-based, human; conditions: 24 hrs, 10% FBS, 1 μM and 10 μM, FIG. 7B
Description: FIG. 7B. […] Western immunoblot of cyclin D1 after treating MCF-7 cells 24 hrs with 10% FBS and 1 μM and 10 μM doses of JD105, JD128 and JD140. Refer to FIG. S4 methods and previous reports (20).
Next, SERD compounds developed in our laboratory were tested for a capability to suppress the expression of cyclin D1 in ERα-positive human breast cancer cells MCF-7 which were used to validate the activity of other hormonal agents previously (see 20) (FIG. 7B).
as §1

| Structure (SMILES) | estrogen receptor-alpha expression (ERα protein levels, Western immunoblot) (estrogen receptor-alpha) | PARP cleavage (cleaved PARP) | ER protein levels (Western immunoblot) (estrogen receptor-alpha; 24 hours, 10, 100 and 1000 nM, FIG. 6A) | cyclin D1 expression (cyclin D1) |
| --- | --- | --- | --- | --- |
| C[C@]12C[C@H](Oc3ccc(NC(=O)CCCCN4CCCCC4)c(F)c3)[C@@H]3c4ccc(O)cc4CC[C@H]3[C@@H]1CC[C@@H]2O [JD140, N-(4-(((8S,9S,11S,13S,14S,17S)-3,17-Dihydroxy-13-methyl-7,8,9,11,12,13,14,15,16,17-deca-hydro-6H-cyclopenta[a]phenanthren-11-yl)oxy)-2-fluorophenyl)-5-(piperidin-1-yl)pentan-amide] | down-regulated | enhanced PARP cleavage | – | – |
| C[C@]12C[C@H](Oc3ccc(N)cc3)[C@@H]3c4ccc(O)cc4CC[C@H]3[C@@H]1CC[C@@H]2O [JD105, (8S,9S,11S,13S,14S,17S)-11-(4-aminophenoxy)-13-methyl-7,8,9,11,12,13,14,15,16,17-decahydro-6H-cyclopenta[a]phenanthrene-3,17-diol] | – | – | reduces ER protein levels | – |
| C[C@]12C[C@H](Oc3ccc(N)c(C(F)(F)F)c3)[C@@H]3c4ccc(O)cc4CC[C@H]3[C@@H]1CC[C@@H]2O [JD128, (8S,9S,11S,13S,14S,17S)-11-(4-Amino-3-(trifluoromethyl)phenoxy)-13-methyl-7,8,9,11,12,13,14,15,16,17-decahydro-6H-cyclopenta[a]phenanthrene-3,17-diol] | greatest effect at suppressing estrogen receptor-alpha expression | – | – | down-regulates cyclin D1 |
